Assay results: patent publication US20160214948A1, “PRODRUGS OF MONOMETHYL FUMARATE (MMF)” (RATIOPHARM GMBH, priority 2013, published 2016)

System: MOG35-55-induced experimental autoimmune encephalomyelitis (EAE)
Assay: MOG35-55-induced experimental autoimmune encephalomyelitis (EAE) in C57BL/6 mice
Format: in vivo
Conditions: male C57BL/6 mice
Method: Assessment and Comparison of the Efficacy of Compounds of the Invention and DMF (Reference) in MOG35-55-Induced Experimental Autoimmune Encephalomyelitis (EAE) in C57BL/6 Mice
male C57BL/6 mice, 12 weeks old; 10 animals per treatment group;
Day 1—subcutaneous injection of MOG35-55, suspended in complete Freund's adjuvans and intraperitoneal injection of pertussis toxin.
Day 3—intraperitoneal injection of pertussis toxin.
Dimethylfumarate and test substances or vehicle only were administered via oral and intravenous route.
For oral administration, test substances were dissolved or suspended in 0.5% hydroxyethylcellulose (dissolved in 50 mM potassium dihydrogenphosphate, pH 5.0). Drug concentration in dose formulations: 11.54 mM;
Dose volume: 10 ml/kg body weight;
Start of treatment: Day 3
For intravenous administration, stock solutions were prepared in DMSO and serially diluted with phosphate buffered saline.
Observations were recorded on day 2, 4, 6, 8, 10, 12, 14 and 16.
Clinical score: grade 0-10; 0 (=no impairments), 1 (normal movement; limp tail: proximal 2/3 of the tail is limp and droopy), 2 (normal movement; whole tail is limp; 3 (wobbly walk; absent righting reflex), 4 (gait ataxia), 5 (milad paraparesis), 6 (moderate paraparesis), 7 (severe paraparesis or paraplegia), 8 (tetraparesis), 9 (moribund), 10 (death).

COC(=O)/C=C/C(=O)OCCN1CCSCC1 [Ia]
body weight (FIG. 4): substantially maintained
clinical score (grade 0-10, FIG. 3, with reference to DMF): reduced with reference to DMF
